{"source": "patent US8940310B2", "about": "“Methods of treatment using TLR7 and/or TLR9 inhibitors” (Dynavax Technologies Corporation, priority 2010, dated 2015)", "key": {"[1]": {"system": "TLR7 and TLR9", "experiment": "Tape stripping skin lesions in lupus prone (NZBxNZW)F1 mice", "format": "in vivo", "parameters": "key to Dermal inflammation: graded on a scale of 1 to 3", "conditions": "for Dermal inflammation / Epidermis thickness / Intraepithelial inflammation / Panniculum inflammation / Ulceration: histological score", "description": "SEQ ID NO:42 (IRS) was used starting the day of the tape stripping during the entire course of the experiments (FIGS. 29A,D,E) or starting at 4 days post injury when the disease is already established (FIGS. 30A,D,E). In both cases SEQ ID NO:42 (IRS) (100 μg; s. c.) was administered twice a week. Also described is the timing of PDC depletion experiments described in FIGS. 29A,F,G. Depleting antibody to PDC anti-120G8 (250 μg; i.p.) were given at day −2 and day 0, eight hours before tape stripping and then given twice a week for the entire duration of the experiment. Experiments were stopped in between 15-23 days after initial tape stripping depending on the progression of the lesions in the untreated groups.\nC57BL/6 and 129 mice were purchased from Charles River Laboratories. (NZBxNZW)F1 female mice were purchased from Jackson Laboratories and used at 18-22 weeks of age. MyD88/KO and TLR9/KO mouse colonies were maintained at Simonsen Laboratories and used with age matched C57BL/6 wild type controls at 8-12 weeks of age. Tape stripping was performed after shaving the dorsal area (3×3 cm) using 10 strokes with duct tape. IRS was administered just before tape stripping SC at a distant site. Alternatively, in (NZBxNZW)F1 mice, IRS was administered long term. In certain experiments PDC and neutrophils were depleted with 250 μg of antibody given IP at day −2 and day 0, eight hours before tape stripping. Anti-120G8 (Imgenex) was used for depletion of PDC (Asselin-Paturel et al., 2003), and anti-GR1-LY6G (clone 1A8; Biolegend) was used for depletion of neutrophils (Daley et al., 2008). […] In experiments where PDC were depleted, long term 120G8 depleting antibody was administered. Experiments in (NZBxNZW)F1 were terminated between 15-23 days after initial tape stripping, depending on the progression of the lesions in the untreated groups in each experiment. Percentage of area with open lesions in (NZBxNZW)F1 and normal mice was evaluated with Nikon software NIS-elements.\nThe biopsy specimens were fixed in formalin and embedded in paraffin. Sections were stained with hematoxylin-eosin. Multiple skin sections of 12-30 mice per group were evaluated in a blinded fashion. The following histological features were assessed and graded on a scale of 1 to 3: i) epidermis thickness ii) degree of ulceration iii) intraepithelial inflammation, iv) dermal inflammation, and v) panniculum inflammation. Histological grading was assigned as follows: 0, normal skin architecture, few dermal leukocytes and regular adnexa; 1, mild inflammation, slight epidermal hyperplasia and signs of dermal fibroblast proliferation; 2, moderate inflammation, noticeable epidermal hyperplasia (two- to four-fold increase in epithelial thickness) with hyperkeratosis, significant leukocyte/neutrophil-granulocyte dermal infiltrate with few macrophages, moderate fibrosclerosis of the dermis, reduction in the number of adnexa, slight degenerative changes of the hypodermic adipose tissue; 3, severe inflammation, marked epidermal hyperplasia (>four-fold increase in epithelial thickness) with hyperkeratosis, formation of keratin-filled craters and cysts, diffuse discontinuity of the epidermal layer (ulceration), extensive dermal infiltrate with abundant neutrophils and macrophages, pronounced dermal fibrosclerosis, vanishing of adnexa and evident degenerative changes of the hypodermic adipose tissue. The different parameters were scored separately and summed to obtained a total disease score (Table 22-1). Statistical significance among groups was calculated with a Mann-Whitney U-test."}, "[2]": {"target": "T1, TLR7 (Homo sapiens, UniProt Q9NYK1)", "T1 construct": "endogenous in cells; host or cells: primary human plasmacytoid dendritic cells from blood donors", "T1 sequence (Q9NYK1 27-1049)": "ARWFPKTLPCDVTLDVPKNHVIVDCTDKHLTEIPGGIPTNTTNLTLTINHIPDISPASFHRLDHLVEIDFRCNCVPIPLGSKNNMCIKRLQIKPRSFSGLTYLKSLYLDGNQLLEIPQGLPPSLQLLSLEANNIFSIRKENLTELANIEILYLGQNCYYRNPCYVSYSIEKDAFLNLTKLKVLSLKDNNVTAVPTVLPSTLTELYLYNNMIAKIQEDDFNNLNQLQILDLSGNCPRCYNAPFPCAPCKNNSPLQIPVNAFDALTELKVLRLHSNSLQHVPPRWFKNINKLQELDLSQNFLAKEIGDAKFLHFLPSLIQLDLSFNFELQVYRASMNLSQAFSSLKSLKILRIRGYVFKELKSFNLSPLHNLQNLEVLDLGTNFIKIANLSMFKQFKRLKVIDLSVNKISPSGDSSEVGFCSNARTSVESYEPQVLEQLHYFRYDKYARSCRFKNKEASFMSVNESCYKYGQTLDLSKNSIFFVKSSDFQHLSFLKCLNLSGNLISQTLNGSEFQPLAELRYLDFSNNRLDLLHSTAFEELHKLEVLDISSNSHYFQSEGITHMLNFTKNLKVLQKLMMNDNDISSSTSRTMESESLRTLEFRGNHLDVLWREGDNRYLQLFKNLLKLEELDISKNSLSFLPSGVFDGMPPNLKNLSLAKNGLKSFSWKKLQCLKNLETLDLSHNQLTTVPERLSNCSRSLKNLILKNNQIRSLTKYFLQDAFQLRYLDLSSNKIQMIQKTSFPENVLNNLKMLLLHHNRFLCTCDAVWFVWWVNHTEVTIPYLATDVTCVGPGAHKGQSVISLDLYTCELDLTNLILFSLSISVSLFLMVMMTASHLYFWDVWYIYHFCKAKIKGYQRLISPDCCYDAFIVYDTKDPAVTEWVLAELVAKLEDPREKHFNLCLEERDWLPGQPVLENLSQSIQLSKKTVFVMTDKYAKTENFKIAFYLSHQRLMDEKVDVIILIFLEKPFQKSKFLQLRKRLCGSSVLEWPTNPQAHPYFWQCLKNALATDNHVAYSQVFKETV", "format": "cell-based"}}, "note": "Entries after “also recorded” stand apart in the source; their conditions may differ. [I] = hypoxanthine (inosine)", "data": [{"substance": "5′-TGCTCCTGGAGGGGTTGT-3′ (DNA, backbone not given here) [SEQ ID NO:42]", "values": [{"measurement": "induction of IFN-regulated and pro-inflammatory genes", "setting": "[1]; (NZBxNZW)F1, single injection prior to tape stripping, 24 hr", "result": "efficiently inhibited this gene induction; also recorded: can be inhibited"}, {"measurement": "Total Disease Score", "setting": "[1]; IRS (pre-injury)", "result": "3.2 ± 0.5"}, {"measurement": "Dermal inflammation", "setting": "[1]; IRS (pre-injury)", "result": "1.3 ± 0.2"}, {"measurement": "Epidermis thickness", "setting": "[1]; IRS (pre-injury)", "result": "0.7 ± 0.2"}, {"measurement": "Intraepithelial inflammation", "setting": "[1]; IRS (pre-injury)", "result": "0.2 ± 0.2"}, {"measurement": "Panniculum inflammation", "setting": "[1]; IRS (pre-injury)", "result": "0.8 ± 0.1"}, {"measurement": "Ulceration", "setting": "[1]; IRS (pre-injury)", "result": "0.0 ± 0.0"}, {"measurement": "Total Disease Score", "setting": "[1]; IRS (therapeutic)", "result": "3.5 ± 0.4"}, {"measurement": "Dermal inflammation", "setting": "[1]; IRS (therapeutic)", "result": "1.2 ± 0.1"}, {"measurement": "Epidermis thickness", "setting": "[1]; IRS (therapeutic)", "result": "1.0 ± 0.2"}, {"measurement": "Intraepithelial inflammation", "setting": "[1]; IRS (therapeutic)", "result": "0.2 ± 0.2"}, {"measurement": "Panniculum inflammation", "setting": "[1]; IRS (therapeutic)", "result": "1.0 ± 0.0"}, {"measurement": "Ulceration", "setting": "[1]; IRS (therapeutic)", "result": "0.2 ± 0.1"}, {"measurement": "lesions, share of the stripped area", "setting": "[1]; IRS before skin injury and for the duration, day 15-23", "result": "less than 15%"}, {"measurement": "surface still covered by open lesions", "setting": "[1]; IRS beginning at day 4, day 15-23", "result": 10, "unit": "%"}, {"measurement": "CLE-like phenotype / healing of established lesions", "setting": "[1]; therapeutic treatment from day 4", "result": "accelerated healing; also recorded: significantly ameliorated CLE-like phenotype"}, {"measurement": "disease onset (skin appearance, histology, gene signatures)", "setting": "[1]; treatment from the day of tape stripping", "result": "able to prevent disease onset"}]}, {"substance": "5′-TGC TCC TGG AGI GGT TGT-3′ (DNA TGCTCCTGGAGNGGTTGT; DNA, [I] at 12, backbone and methylation of C not given here) [SEQ ID NO:73]", "values": [{"measurement": "IC50", "setting": "[2]; read-out: IC50, IFN-α, FLU", "result": 13, "unit": "nM"}, {"measurement": "IC90", "setting": "[2]; read-out: IC90, IFN-α, FLU", "result": 101, "unit": "nM"}]}]}
